Source: patent publication US20180036270A1, “A METHOD OF PROTECTING AGAINST CARBONYL STRESS INDUCED ISCHEMIA-REPERFUSION INJURY IN THE DIABETIC BRAIN VIA ADMINISTRATION OF N-ACETYLCYSTEINE” (Board of Supervisors of Louisiana State University and …, priority 2015, published 2018)
Entries after “also recorded” stand apart in the source; their conditions may differ.

Columns and labels:
[1] = 60 mg/kg/d over 8-75 months in young children; cited from earlier work
[2] = tested on: STZ-treated diabetic mice, I/R brain injury; test: Middle cerebral artery occlusion-reperfusion (MCAoR) brain infarct area in diabetic mice; assay type: in vivo, mouse; conditions: 2 mM NAC in drinking water 1 or 3 weeks before MCAoR, 45 min ischemia, 24 h reperfusion
Procedure: Turning now to FIGS. 1A-1C, a brief description concerning the various components of the present invention will now be briefly discussed. As shown, ischemia/reperfusion (I/R) injury in control and diabetic brain was determined using the middle cerebral artery occlusion-reperfusion (MCAoR) model of Koizumi. MCA occlusion was for 45 min and reperfusion for 24 h. Diabetes model were: mice injected with streptozotocin (STZ) or Akita mice lacking the Insulin-2 gene which spontaneously developed diabetes in 4 wks. Results are mean±SE. NT=no treatment; Veh=citrate buffer; Veh+STZ=4 week post STZ. Ak—Akita. The post I/R infarct area is represented by the unstained (white) regions of left brain sections.
Turning to FIGS. 12A-12C, I/R injury in control and diabetic brain was determined using the middle cerebral artery occlusion-reperfusion (MCAoR) model of Koizumi. MCA occlusion was for 45 min and reperfusion for 24 h. Diabetes was induced with streptozotocin (STZ) and stroke was induced in 4-week diabetic mice. NAC (2 mM) was given in drinking water for 3 weeks. Results are mean±SE. Veh=citrate buffer; STZ=4 week post STZ. The post I/R infarct area is represented by the unstained (white) regions of left brain sections after staining with TTC.
Four-week-old male C57BL/6J mice, weighing 18-20 g, were purchased from Jackson Laboratory. […]

[3] = tested on: blood-brain barrier (BBB); test: Blood-brain barrier permeability by Evans Blue extrusion; assay type: in vivo, mouse; conditions: STZ mice, NAC 3 weeks
[4] = tested on: cerebral microvessels of STZ diabetic mice; test: Light-dye induced thrombosis in cerebral arterioles and venules of STZ diabetic mice; assay type: in vivo, mouse
[5] = tested on: MG-protein adducts, occludin, GCLc in diabetic mouse brain; test: Western blot of MG-protein adducts, occludin, GCLc and occludin glycation in brain; assay type: in vivo; conditions: STZ mice, NAC 3 weeks
Procedure: Representative immunoblots are shown. The bar graphs show the quantitation of the protein band intensities normalized to β-actin; n=5/grp. […] Brain tissues were homogenized with RIPA lysis buffer containing 50 mM Tris, pH 8.0, 150 mM sodium chloride, 0.5% sodium deoxycholate, 0.1% SDS and protease inhibitor cocktail. Total protein (20 μg) per sample was loaded on 10% SDS-polyacrylamide gels. Electrophoresis was performed at 150V for 1 h, and transfer onto PVDF membranes at 100 V for 1 h. The membranes were blocked in 5% nonfat milk in TBST buffer containing 20 mM Tris, 137 mM NaCl, 0.1% Tween20, pH 7.6 for 40 min at room temperature followed by overnight incubation with either rabbit-anti-mouse occludin polyclonal antibody (1:2000), rabbit-anti-mouse GCGc polyclonal antibody (1:2000) or mouse anti-MG monoclonal antibody (1:2000) at 4° C. on an agitator. The second day, the PVDF membranes were incubated with HRP-conjugated goat-anti-rabbit or sheep-anti-mouse secondary antibody (1:10000) for 2 h at room temperature. Protein expression was detected using enhanced chemiluminescence (BIO-RAD) according to the manufacturer's instructions. The membranes were stripped and reprobed with anti-mouse actin monoclonal antibody (1:5000) to verify equal protein loading.

[6] = tested on: human brain microvascular endothelial cells (IHECs); test: MG-occludin adduct formation in IHECs (Western blot, immunoprecipitation); assay type: cell-based; conditions: IHECs in 5 mM glucose exposed to MG for 4 h with 2 mM NAC
[7] = tested on: diabetic mice with transient ischemic attacks; test: Thrombosis after transient ischemic attack (TIA) in diabetic mice; assay type: in vivo, mouse; conditions: diabetes+TIA mice given NAC
[8] = tested on: platelet-leukocyte aggregates (PLAs); test: Platelet-leukocyte aggregate formation in STZ diabetic mice; assay type: in vivo, mouse; conditions: 5 and 19 week diabetic mice; NAC 2 mM for 2 weeks
Procedure: Turning to FIGS. 25A-25D, the percent of circulating leukocytes forming aggregates with platelets at 5 weeks of diabetes is shown (FIG. 25A). Aggregate formation between platelets and leukocyte subpopulations include: lymphocytes (FIG. 25B), neutrophils (FIG. 25C) and monocytes (FIG. 25D). Non-diabetic (vehicle-treated (Veh)), diabetic (STZ) and diabetic mice treated with NAC (2 mM for 2 weeks) were assessed. Turning to FIGS. 26A-26D, the percent of circulating leukocytes forming aggregates with platelets at 19 weeks of diabetes is shown (FIG. 26A). Aggregate formation between platelets and leukocyte subpopulations include: lymphocytes (FIG. 26B), neutrophils (FIG. 26C) and monocytes (FIG. 26D). Non-diabetic (vehicle-treated (Veh)), diabetic (STZ) and diabetic mice treated with NAC (2 mM for 2 weeks) were assessed.

CC(=O)N[C@@H](CS)C(=O)O [NAC, N-acetylcysteine]
tolerability [1]: well-tolerated | percent infarct area [2]: significantly attenuated; also recorded: protects the diabetic brain against injury induced by I/R | leakage of Evans Blue (BBB permeability) [3]: significantly decreased | thrombosis onset and cessation times in cerebral venules and arterioles ([4]; 6 and 20 week diabetic mice, NAC 2 mM in drinking water for 3 weeks): provided protection against the accelerated thrombosis in both types of vessels | time to onset of thrombosis in brain microvessels ([4]; 20 week diabetic mice, NAC 2 mM in drinking water for 1 week): decreases the accelerated onset of thrombosis | MG-adduct formation in brain [5]: significantly decreased | occludin glycation in brain (immunoprecipitation) [5]: significantly decreased | total protein expression of GCLc [5]: does not alter | total protein expression of occludin [5]: does not alter | occludin glycation (MG-occludin adduct) [6]: prevent the formation of MG-occludin adducts; also recorded: prevented | thrombosis time [7]: some improvement | platelet-leukocyte aggregate (PLA) formation [8]: effectively normalized
